From patent US7279499B2, “Substituted benzopyrans as selective estrogen receptor-beta agonists” (Eli Lilly and Company, priority 2004, dated 2007)

melting point [°C]	SMILES
195 to 197	OCc1cc(O)cc2c1O[C@@H](c1ccc(O)cc1)[C@H]1CCC[C@@H]21 (single isomer, unassigned) [Example 2B]
62 to 66	CCOCc1cc(O)cc2c1O[C@@H](c1ccc(O)cc1)[C@H]1CCC[C@@H]21 (single isomer, unassigned) [Example 3B]
76 to 80	COCc1cc(O)cc2c1O[C@@H](c1ccc(O)cc1)[C@H]1CCC[C@@H]21 [Example 1B, (3aS, 4R, 9bR)-4-(4-Hydroxy-phenyl)-6-methoxymethyl-1,2,3,3a,4,9b-hexahydro-cyclopenta[c]chromen-8-ol]
